Assay results: patent publication US9879243B2, “Culture medium for cell growth and transfection” (LIFE TECHNOLOGIES CORPORATION, priority 2001, dated 2018)

Experiments:
Format in all cases: cell-based, human
293 cells [1] = assay: Effect of replacement compounds on the growth of 293 cells in 293 SFM without transferrin, three passages; details: third passage, control 5 μg/mL human holo-transferrin
293 cells [2] = assay: Growth and adaptation of 293 cells to test media before transfection; details: for support of growth at the ZnSO4 concentrations tested: Example 7, ethyl maltol 50 μM, 2-hydroxypyridine 25 μM, DPTA.FeSO4 50 μM, ZnSO4 0.5×-5×
Experimental: When cultured in suspension, cells were split to 3×10^5 viable cells per ml at each passage. On the week of transfection cells were seeded at 3×10^5 viable cells per ml. After ˜48 hrs of growth (day 2) cells were vortexed for 30 seconds and counted and appropriate volumes used for transfection as described in procedures below.
293 cells were grown in monolayer culture in base medium supplemented with the indicated replacement compounds at the concentrations specified in Table 9.

293 cells [3] = assay: X-gal in situ staining, % transfection efficiency, 293 cells in 24-well plates; details: Example 7
Experimental: The third well of each treatment was used for in situ staining for β-galactosidase activity (i.e., ˜1×10^6 cells).
The transfection efficiency of cells grown in the presence of ZnSO4+ chelating agent as a replacement for insulin was tested at various concentrations of chelator and ZnSO4 and the results are shown in Table 10. Cells were prepared in monolayer culture in base medium containing the indicated supplements and transfected and assayed as described above.
293 cells were grown in monolayer culture in base media supplemented with the indicated chelator and metal salt at the indicated concentrations. The concentration of the chelator is given in μmoles/l and the concentration of the metal salt is given in μgrams/ml. […] The concentration of the cells in the media was 1×10^6 cell/ml, the concentration of DNA used was 1 μg DNA/10^6 cells, the concentration of LIPOFECTAMINE 2000 used was 8 μl/10^6 cells.
For cells transfected in 24-well plates, cells densities used were 1×10^6 viable cells per well.

[4] = 25 μM, iron equimolar where combined

Molecule: CCc1occc(=O)c1O [2-Ethyl-3-Hydroxy-4-Pyrone]
- mean percentage of control growth (293 cells [1]; [4]): 59 percentage of control growth
- mean percentage of control growth (293 cells [1]; 50 μM): 120 percentage of control growth
- mean percentage of control growth (293 cells [1]; 100 μM): 126 percentage of control growth
- support of growth (293 cells [2]; Example 6, 100 μM): did not support growth
- support of growth at the ZnSO4 concentrations tested (293 cells [2]): supported growth at all concentrations of ZnSO4 tested
- X-gal staining transfection efficiency (293 cells [3]; media with 1× ZnSO4): ~40%
- X-gal staining transfection efficiency (293 cells [3]; media with insulin): 50-60%

Molecule: Diethylenetriamine Penta-Acetic Acid•Ferrous Sulfate
- mean percentage of control growth (293 cells [1]; [4]): 77 percentage of control growth
- mean percentage of control growth (293 cells [1]; 50 μM): 107 percentage of control growth
- mean percentage of control growth (293 cells [1]; 100 μM): 85 percentage of control growth
- growth in the presence of ZnSO4 (293 cells [2]; Example 6, in combination with ZnSO4 instead of insulin): acceptable
- support of growth at the ZnSO4 concentrations tested (293 cells [2]): supported growth at concentrations of 1×, 2× and 5× ZnSO4, but not at 0.5×
